For assay [1], the system named is yeast 20S proteasome, chymotrypsin-like (ChT-L) activity. As to conditions: luminogenic enzyme assay; cited from earlier work.
Assay [2] has as its target yeast 20S proteasome, caspase-like (C-L) activity. Conditions: luminogenic enzyme assay; cited from earlier work.
For assay [3], the system named is yeast 20S proteasome, trypsin-like (T-L) activity. As to conditions: luminogenic enzyme assay; cited from earlier work.
The test system of another assay is human proteasome. Set-up: method as in PMID 16286248. As to conditions: cited from earlier work.
For assay [4], the target named is T1, yeast 20S proteasome (Saccharomyces cerevisiae, UniProt P25043+P30656+P38624).
T1 construct: Crystals of the 20S proteasome from S. cerevisiae were grown in hanging drops; endogenous in cells; host or cells: S. cerevisiae (complex purified from yeast by a cited earlier protocol)
As to conditions: cited from earlier work.

For assay [5], the system named is yeast 20S proteasome, chymotrypsin-like (ChT-L) activity. The experiment in a line: luminogenic enzyme assay, chymotrypsin-like activity. The format is biochemical. Here is the method:
The proteasome inhibitory activity of the unnatural analog, homoSalA, was measured in a luminogenic enzyme assay in comparison to SalA enabling assessment of all three active sites of yCP.

Assay [6] has as its target T1, yeast 20S proteasome. The experiment in a line: X-ray crystallography of yeast 20S proteasome:ligand complex, mode of action. The format is binding. Conditions: yCP:homoSalA crystal structure, crystals soaked at 5 mM; no tetrahydropyran ring formation. Here is the method:
Therefore, we elucidated the yCP:homoSalA complex at molecular resolution to investigate its mode of action. Active yCP crystals were soaked with final compound concentrations of 5 mM for 24 h. Subsequently, diffraction data were recorded to 2.9 Å resolution (Table 2) and data processing, as well as structural refinement, were performed according to previous protocols. The crystallographic data were refined to a final Rfree value of 23.3% with root mean square deviation bond and angle values less than 0.007 Å and 1.1°, respectively (PDB ID 6GOP, Table 2). […] While the active site nucleophile Thr1O^γ opens the β-lactone ring, the positively charged Thr1NH3^+-terminus acts as a Brønsted acid generating a C4-hydroxyl group from the hydrolyzed β-lactone. […]
While the electron density map offered no evidence for fluoride elimination, the complex structure determined after 24 h crystal soaking time depicts complete displacement of the leaving group. […]
Crystals of the 20S proteasome from S. cerevisiae were grown in hanging drops at 20 °C as previously described and incubated for […] with homoSalA at 5 mM. […] Crystals were soaked in a cryoprotecting buffer (30% MPD, 20 mM of magnesium acetate, 100 mM MES (pH 6.9)) and frozen in a stream of liquid nitrogen gas at 100 K. X-ray intensities were evaluated using the XDS program package. […]

For assay [7], the system named is chymotrypsin-like activity of the proteasome. Set-up: method as in PMID 7732382. Conditions: cited from earlier work.

Where two headings read alike, the source gives them in different places.

With `C[C@@]12OC(=O)[C@]1([C@@H](O)[C@@H]1C=CCCC1)NC(=O)[C@@H]2CCCl` [(–)-SalA (1), salinosporamide A], in assay [1], the “ChT-L Activity 20S Proteasome (IC50, nM)” value is “sub-nanomolar range”. The IC50 (usually the concentration that inhibits the measured activity by half) is 0.8 ± 0.08 nM in assay [1], 111 ± 22 nM in assay [2], 39 ± 7 nM in assay [3] and 1.3 nM in the assay on human proteasome. The “mode of action (reversibility of proteasome inhibition)” value at yeast 20S proteasome [4] (chloro-ethyl moiety forms a tetrahydrofuran ring) is recorded as “irreversibly blocks the CP”.

As to `C[C@@]12OC(=O)[C@]1([C@@H](O)[C@@H]1C=CCCC1)NC(=O)[C@@H]2CCCCl` [(–)-homoSalA (3), (–)-homosalinosporamide A], the “potency towards caspase- and trypsin-like activities relative to chymotrypsin-like activity” value in assay [5] was “two orders of magnitude less potent”. Moreover, the “mode of action (reversibility of proteasome inhibition)” value at yeast 20S proteasome [6] is “reversible binder”. In assay [1], the “ChT-L Activity 20S Proteasome (IC50, nM)” value was “sub-nanomolar range”. Besides, the figures for the half-maximal inhibitory concentration (IC50) in assay [1], in assay [2] and in assay [3] were 0.7 ± 0.04 nM, 144 ± 12 nM and 118 ± 28 nM, respectively.

As to `CC[C@H]1C(=O)N[C@@]2([C@@H](O)[C@@H]3C=CCCC3)C(=O)O[C@@]12C` [SalB, salinosporamide B], the “mode of action (reversibility of proteasome inhibition)” value at yeast 20S proteasome [4] is given as “slow reversible CP inhibitor”.

In the case of `CC(C)[C@H](O)[C@@]12NC(=O)[C@H](C)[C@@H]1OC2=O` [omuralide (5), omuralide], in assay [7], the IC50 was 49 nM.

The values above are taken from publication PMC6071143, “(−)-Homosalinosporamide A and Its Mode of Proteasome Inhibition: An X-ray Crystallographic Study” (Marine Drugs, 2018).
